pIC50: −log10 of the molar value.
Assays:
[1] = system: biosynthesis of LTB4 by isolated human neutrophils; test: Inhibition of LTB4 biosynthesis by isolated human neutrophils (PMN); assay type: cell-based; settings: A23187 stimulated human PMN; for inhibition at 2.5 µM: Neutrophil, read-out: % Inhibition of LTB4 Synthesis
Procedure: The ability of the compounds of the invention to inhibit the biosynthesis of LTB4 by isolated human neutrophils is evaluated in the following assay, which is carried out in this manner.
A leukocyte enriched blood sample obtained from a healthy donor is procured by leukophoresis using a Haemonetics model 30+ blood processor (Biological Specialties, Inc., Lansdale, Pa.). The top "platelet-rich" layer is removed after a low speed spin (35×g, 15 min, 25° C.) of the sample. The remaining cell suspension is centrigued (400×g, 10 min, 25° C.) to sediment the remaining cells. The supernatant is discarded and the cell pellet resuspended in 120 ml HBSS (without Ca^++ /Mg++). The cell suspension is subjected to ficoll-hypaque sedimentation (Histopaque 1077, 400×g, 30 min, 25° C.). Contaminating erythrocytes are lysed by hypotonic shock (1 min). The cells are then washed once with 40 ml of HBSS and resuspended with HBS S (without Ca^++ /Mg^++) to a concentration of 2.5×10^7 cells/ml for further use. Greater than 95% purity is obtained as assessed by microscopic examination.
One ml of human PMN (2.5×10^7 cells/ml) is incubated with vehicle or drugs (10 μl) for 10 min at 30° C. After preincubation, an equal volume of HBSS (1 ml) containing 2.4 mM CaCl2, 6 μM calcium ionophore A23187 and 50 μCi[^3 H]-acetate is then incubated at 30° C. for 15 minutes. An aliquot (100 μl) of the reaction mixture is taken out and mixed with 900 μl of 15% ethanol. LTB4 is extracted by using solid phase extraction on reverse phase C18 columns to remove excess [^3 H]-acetate and PAF. The C18 column is prewashed once with 2 ml of ethanol and water. The sample aliquot is acidified with 0.1 N HCl to pH3 before applying to the column. The column is then washed with 2 ml of water followed by 2 ml of 15% ethanol and 2 ml of petroleum ether to remove excess labeled acetate. The sample is eluted with 2 ml of ethyl acetate. The collected samples are dried with nitrogen and resuspended in 0.5 ml RIA buffer. The quantity of LTB4 in the sample is obtained from RIA determination.
Data presented are the mean +/- s.d. of the values relative to control A23187 stimulated cells for each experiment assayed in triplicate. Percent inhibition when used is calculated as:
% Inhibition=100-[(×.div.Control )×100]
Dose response analysis is performed by non-linear regression analysis for curve fitting and IC50 determination.

LTB4 = test: Reverse passive Arthus pleurisy assay, inflammatory mediator release: LTB4; assay type: in vivo, rat (male Lewis); settings: standard drugs
Procedure: (§1) The compounds of the invention are further tested in the reverse passive Arthus pleurisy assay to evaluate their effectiveness in inflammatory mediator release and/or the fluid and cellular phases of an inflammatory response.
(§2) This assay is carried out as follows:
A reverse passive Arthus reaction is induced in the pleural cavity of male Lewis rats (150-200 g; fasted overnight prior to use) by the intravenous administration of bovine serum albumin (BSA; 4 mg/0.2 ml) followed 30 minutes later by the injection of rabbit anti-BSA (1 mg/0.2 ml; lyophilized IgG fraction; Organon Teknika, West Chester, Pa.) into the right pleural space under halothane anesthesia. […] Animals are sacrificed at either the time of peak eicosanoid production (i.e. 5 minutes after anti-BSA for immunoreactive TxB2 10 minutes for immunoreactive LTB4, 20 minutes for immunoreactive LTC4) or at the time of peak neutrophil infiltration (4 hours after anti-BSA) by CO2 inhalation. The pleural cavity is then exposed, the fluid exudate removed by gentle vacuum aspiration and the volume of exudate is recorded. For the determination of cellular infiltration, the pleural cavity is rinsed with 3 ml of 0.1% EDTA in sterile saline, and the recovered wash is pooled with the exudate. Cell number is determined on a model ZBI Coulter counter. For determination of eicosanoid production, undiluted pleural exudate is microfuged and the supernatant is extracted with ethanol (8-10 times volume). Extracts are either stored at -20° C., or are evaporated to dryness under a stream of N2 and reconstituted in radioimmunoassay (RIA) buffer.
Eicosanoids are quantitated by RIA according to the procedure specified by the RIA kit manufacturer (Advanced Magnetics, Cambridge, Mass.). Briefly, 100 μl of ^3 H-labeled eicosanoid and 100 μl of specific antibody are sequentially added to 100 μl of extracted pleural exudate in BGG -phosphate buffer which contains 0.01 M phosphate, 0.1% bovine gamma globulin and 0.1% sodium azide at pH 7.0. Antibody-bound eicosanoid is separated from unbound eicosanoid by the addition of 750 μl of dextran (0.4%)-coated charcoal (0.4% Norit A) containing 0.1% sodium azide. The mixture is centrifuged at 2000 RPM at 5° C. for 15 minutes to pellet the charcoal and adsorbed unbound eicosanoid. Antibody-bound labeled eicosanoid is quantitated by counting in a liquid scintillation counter, and is correlated to concentration by a standard curve.
(§3) Inflammatory cells are expressed as 10^6 cells/ml, pleural exudate is expressed as ml of fluid, and the amount of eicosanoids in the pleural cavity is expressed as ng/ml of exudate. Mean ±S.E.M. is determined for each group. Percent inhibition (% I) of cell number, exudate volume and eicosanoid production is calculated for vehicle-treated control groups, and the responses in drug-treated rats are then expressed as the mean % I of the control. […] Exp. Ther., 96, 99-113 (1949).

TxB2 = test: Reverse passive Arthus pleurisy assay, inflammatory mediator release: TxB2; assay type: in vivo, rat (male Lewis); settings: standard drugs; for ED50 TxB2: p.o., inflammatory mediator release, 5 min
Procedure: as §1, §2
A reverse passive Arthus reaction is induced in the pleural cavity of male Lewis rats (150-200 g; fasted overnight prior to use) by the intravenous administration of bovine serum albumin (BSA; 4 mg/0.2 ml) followed 30 minutes later by the injection of rabbit anti-BSA (1 mg/0.2 ml; lyophilized IgG fraction; Organon Teknika, West Chester, Pa.) into the right pleural space under halothane anesthesia. Drugs or vehicle (0.5% Tween-80) control are administered orally in a volume of 1 ml/100 g body weight at 1 hour prior to the anti-BSA. Animals are sacrificed at either the time of peak eicosanoid production (i.e. 5 minutes after anti-BSA for immunoreactive TxB2 10 minutes for immunoreactive LTB4, 20 minutes for immunoreactive LTC4) or at the time of peak neutrophil infiltration (4 hours after anti-BSA) by CO2 inhalation. The pleural cavity is then exposed, the fluid exudate removed by gentle vacuum aspiration and the volume of exudate is recorded. […] Cell number is determined on a model ZBI Coulter counter. […]
Eicosanoids are quantitated by RIA according to the procedure specified by the RIA kit manufacturer (Advanced Magnetics, Cambridge, Mass.). […] Antibody-bound labeled eicosanoid is quantitated by counting in a liquid scintillation counter, and is correlated to concentration by a standard curve.
Inflammatory cells are expressed as 10^6 cells/ml, pleural exudate is expressed as ml of fluid, and the amount of eicosanoids in the pleural cavity is expressed as ng/ml of exudate. Mean ±S.E.M. is determined for each group. Percent inhibition (% I) of cell number, exudate volume and eicosanoid production is calculated for vehicle-treated control groups, and the responses in drug-treated rats are then expressed as the mean % I of the control. […]

[2] = system: synthesis of the arachidonic acid cyclooxygenase oxidation product PGE2 (rat PMN); test: Inhibition of cyclooxygenase product PGE2 synthesis by rat PMN; assay type: cell-based; settings: negative values denote a potentiation of cyclooxygenase
Procedure: In this assay, the procedure of Example 41 is carried out as described. However, in order to determine cyclooxygenase activity, the samples are cochromatographed with authentic reference [^3 H]-PGE2.

[3] = system: 5-lipoxygenase in human whole blood; test: Inhibition of 5-lipoxygenase in human whole blood (LTB4); assay type: cell-based
Procedure: The assay of this Example measures the ability of the compounds tested to inhibit 5-lipoxygenase in human whole blood.
as §2
Blood is obtained in 50-100 ml quantities from male donors. White blood cell counts and differentials are made. Two ml of blood are placed in a 15 ml polypropylene test tube. Compounds are solubilized in dimethylsulfoxide and diluted 1:10 in 10% bovine serum albumin in phosphate buffered saline, pH 7.4 resulting in a final dimethylsulfoxide concentration of 0.1% in the blood. Then, compounds are added to the blood in a shaking water bath at 37° C. for 10 minutes prior to the addition of 30 μM calcium ionophore (A23187; Sigma). After ionophore administration, whole blood samples are mixed and incubated for 20 minutes at […] in a shaking water bath. Incubation is terminated by placing samples in an ice bath and immediately adding ethylene glycol-bis-(β-aminoethyl ether)-N,N,N',N'-tetraacetic acid (10 mM). Samples are mixed and centrifuged at 1200×g for 15 minutes at 4° C. Preparation of samples for evaluation by RIA or ELISA is carried out by the following protocol. Plasma is removed from sample tubes, placed in 15 ml polypropylene test tubes containing 8 ml methanol, and then vortexed to precipitate protein. Samples are stored at -70° C. overnight. The next day, samples are centrifuged at 200×g for 15 minutes at 4° C. to pellet the precipitate. Samples are dried in a Savant speed vac concentrator, reconstituted to original volume with ice cold RIA or ELISA buffer, and stored at -70° C. until assayed. The assay for eicosanoids (LTB4, TxB2, and PGE2) is performed as described by the manufacturer of the [^3 H]-RIA kit or ELISA kit (LTB4 -Amersham, TxB2 and PGE2 - Caymen Chemical).
The total eicosanoid level in 2 ml of blood is calculated and reported as ng/10^6 neutrophils. […] Drug effects are expressed as percent change from control values.
Compounds tested in vitro are solubilized in dimethylsulfoxide and diluted 1:10 in 10% bovine serum albumin in phosphate buffer saline resulting in a final dimethylsulfoxide concentration of 0.1% in the blood.

[4] = system: fluid and cellular phases of an inflammatory response; test: Reverse passive Arthus pleurisy assay, pleural inflammation (fluid exudation, cellular influx); assay type: in vivo, rat (male Lewis); settings: standard drugs
Procedure: as §1, §2
A reverse passive Arthus reaction is induced in the pleural cavity of male Lewis rats (150-200 g; fasted overnight prior to use) by the intravenous administration of bovine serum albumin (BSA; 4 mg/0.2 ml) followed 30 minutes later by the injection of rabbit anti-BSA (1 mg/0.2 ml; lyophilized IgG fraction; Organon Teknika, West Chester, Pa.) into the right pleural space under halothane anesthesia. Drugs or vehicle (0.5% Tween-80) control are administered orally in a volume of 1 ml/100 g body weight at 1 hour prior to the anti-BSA. Animals are sacrificed at either the time of peak eicosanoid production (i.e. 5 minutes after anti-BSA for immunoreactive TxB2 10 minutes for immunoreactive LTB4, 20 minutes for immunoreactive LTC4) or at the time of peak neutrophil infiltration (4 hours after anti-BSA) by CO2 inhalation. The pleural cavity is then exposed, the fluid exudate removed by gentle vacuum aspiration and the volume of exudate is recorded. For the determination of cellular infiltration, the pleural cavity is rinsed with 3 ml of 0.1% EDTA in sterile saline, and the recovered wash is pooled with the exudate. Cell number is determined on a model ZBI Coulter counter. For determination of eicosanoid production, undiluted pleural exudate is microfuged and the supernatant is extracted with ethanol (8-10 times volume). Extracts are either stored at -20° C., or are evaporated to dryness under a stream of N2 and reconstituted in radioimmunoassay (RIA) buffer.
as §3

CC(c1cc2ccccc2s1)N(O)C(N)=O (stereo not drawn) [A-64,077, reference compound]
inhibition at 2.5 µM [1]: 75.8%

CN=C1CCN(c2cccc(C(F)(F)F)c2)N1 [BW540C, reference compound]
ED50 LTB4 (LTB4; p.o., inflammatory mediator release, 10 min): 30 mg/kg
ED50 TxB2 (TxB2): 19 mg/kg

O=C(O)Cc1cccc(C(=O)c2ccc(OCc3ccc4ccccc4n3)cc2)c1 [Example 3, 3-[4-(2-Quinolinylmethoxy)benzoyl]benzene acetic acid]
inhibition at 0.5 µM ([2]; at 0.5 μM): -8%
inhibition at 10 µM ([2]; at 10 μM): 8%

O=C(O)Cc1ccc(-c2ccc(OCc3nc4ccccc4s3)cc2)cc1 [Example 12, 4'-(Benzothiazolylmethoxyl)-4-diphenylacetic acid]
% Inhibition of LTB4 Synthesis ([1]; at 2.5 μM): Inactive

CN(O)C(=O)Cc1ccc(-c2ccc(OCc3nc4ccccc4s3)cc2)cc1 [Example 13, 4'-(Benzothiazolylmethoxy)-4-diphenyl-N-hydroxy-N-methyl-acetamide]
inhibition at 2.5 µM [1]: 98.9%

CC(C(=O)N(C)O)c1ccc(-c2ccc(OCc3nc4ccccc4n3C)cc2)cc1 (stereo not drawn) [Example 23]
pIC50 [3]: 4.92
% Inhibition of LTB4 ([3]; at 25 μM): 32%
inhibition at 2.5 µM [1]: 99%

COc1ccc2cc([C@H](C)C(=O)O)ccc2c1 [Naproxen]
% Inh LTB4 (LTB4; 4 mg/kg p.o.): 0%
ED50 TxB2 (TxB2): 0.24 mg/kg
% Inh Cellular Influx ([4]; 8 mg/kg p.o.): 29%
ED30 Fluid Exudation ([4]; p.o., pleural inflammation): 3.9 mg/kg

C[C@H](C(=O)O)c1ccc2cc(OCc3ccc4ccccc4n3)ccc2c1.NC(CO)(CO)CO [Wy-50,295-A]
% Inh TxB2 (TxB2; 75 mg/kg p.o.): 0%
